Measurements reported in patent US20120114797A1, “TALAROMYCES STRAINS AND ENZYME COMPOSITIONS” (DSM IP ASSETS B.V., priority 2009, published 2012).

How the values were obtained:
TEC-142 = test: MIC of glucose analogs on YNB+agar plates, TEC-142; assay type: cell-based, Talaromyces emersonii; settings: 10^7/ml spore suspensions of TEC-142 on YNB+agar plates
Description: MIC values of various glucose analogs (2-deoxyglucose, 1-thioglucose, 5-thioglucose) are determined by examining growth after inoculation of 0.1 ml dilutions of 10^7/ml spore suspensions of TEC-142 on YNB+agar plates with increasing concentrations of analogs.
The MIC value of 2-deoxyglucose (DOG) was determined by examining growth after inoculation of 0.1 ml dilutions of 10^7/ml spore suspensions of TEC-142 on YNB+agar plates with increasing concentrations of analog.

TEC-180 = test: MIC of 2-deoxyglucose on YNB+agar plates, TEC-180; assay type: cell-based, Talaromyces emersonii; settings: 10^7/ml spore suspensions of TEC-180 on YNB+agar plates

Row | MIC (TEC-180) | Structure (SMILES) | MIC (TEC-142)
1 | – | OC[C@@H](O)[C@@H](O)[C@H](O)[C@@H](O)C=S [1-thioglucose] | 4000 µg/mL
2 | 500 µg/mL | O=CC[C@@H](O)[C@H](O)[C@H](O)CO [2-deoxyglucose, 2-deoxy-D-glucose] | 500 µg/mL
